{
  "source": "patent US9765115B2",
  "about": "“Inhibitors of metastasis, methods of generating such inhibitors and their therapeutic applications” (Board of Supervisors of Louisiana State University acting …, priority 2011, dated 2017)",
  "type_in_all_cases": "cell-based",
  "key": {"[1]": {"test_system": "PC-3M cells expressing ZO-1-wt or its ΔPDZ mutants", "assay": "Transepithelial electric resistance (TER)", "conditions": "CT 50 nM", "procedure": "Cells were plated on Transwell filters (0.4 μm pore size) and grown to confluency in complete medium (RPMI1640 containing 10% fetal bovine serum, 20 mM HEPES and antibiotics). TER of the cultures (in duplicate wells) was measured at several time intervals with EVOM volt-ohm meter as previously described (Shah et al, 2009). The readings were corrected for blank (TER values from the filter in bathing medium). The integrity and cell density of monolayers were carefully monitored.\nSince ZO-1 contains three PDZ domains, which of these interacts with CTR-C PDZ-binding motif was analyzed. PC-3M cells was used for this study because they are PC-3-derived, but co-express both CT and CTR, and are suitable to examine modulation of CTR action in response to mutations in ZO-1 (Chien et al., 2001). To knock down endogenous ZO-1 expression, PC-3M cells were stably transfected with constitutive ZO-1 shRNA expression vector (pSuper.neo system; shRNA duplex-5′-GACGAGAUAAUCCUCAUUUtt-3′ (SEQ ID NO:8) corresponding to 596-614 bp of ZO-1 mRNA). Since the constitutive presence of ZO-1 siRNA in PC-3M cells could interfere with the re-expression of ZO-1 wt or its ΔPDZ mutants, ZO-1 (wt or ΔPDZ mutants) cDNA expression vectors refractory to ZO-1 RNAi were generated by introducing a silent mutation in RNAi target sequence in the ZO-1 transgene. […]"}, "CTR-ZO-1 interaction [2]": {"molecular_target": "T1, CTR-ZO-1 interaction (Homo sapiens, UniProt P30988)", "T1 construct": "PCR generated full length CTRwt and CTRΔESS cDNAs were cloned directionally into pcDNA3.1 mammalian expression vector; FLAG (N); expressed in transfected cells; host or cells: PC-31 / PC-3 cells stably expressing FLAG-CTRwt; ZO-1 is the cells' own", "T1 sequence (P30988 25-474)": "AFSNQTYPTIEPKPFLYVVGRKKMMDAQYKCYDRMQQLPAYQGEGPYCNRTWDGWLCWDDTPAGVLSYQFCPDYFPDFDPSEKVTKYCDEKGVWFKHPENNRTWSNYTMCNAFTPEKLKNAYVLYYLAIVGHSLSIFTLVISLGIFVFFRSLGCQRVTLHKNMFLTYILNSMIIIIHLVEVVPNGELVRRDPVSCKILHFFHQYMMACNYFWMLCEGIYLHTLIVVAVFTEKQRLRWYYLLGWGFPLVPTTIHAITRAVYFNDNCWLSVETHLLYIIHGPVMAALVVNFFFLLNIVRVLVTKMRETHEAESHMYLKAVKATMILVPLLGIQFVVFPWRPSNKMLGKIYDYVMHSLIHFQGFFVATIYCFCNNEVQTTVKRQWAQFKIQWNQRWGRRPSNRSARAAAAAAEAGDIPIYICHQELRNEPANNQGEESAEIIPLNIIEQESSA", "assay": "In situ proximity ligation assay (PLA)", "conditions": "PC-3CTRwt cells", "procedure": "(§1) Fixed PC cells or tissues were immunolabeled with primary antibodies (anti-rabbit ZO-1 serum and anti-goat CTR serum) for overnight at 4° C. The secondary antibodies with attached PLA probes were supplied in the Duolink™ kit (Olink Bioscience, Uppsala, Sweden). CTR-ZO-1 interaction was observed by confocal microscopy at 400×. A red fluorescent dot indicated the two proteins are within 35 nm distance. The number of dots per cell was determined by Blobfinder™ image analysis software (Allalou et al., 2009).\n(§2) Next, CTR-ZO-1 interaction was examined in PC-3CTRwt cells. […] Each dot represents an interaction between activated CTR and ZO-1, detected by in situ PLA™ using the Duolink® kit. Nuclei were stained with DAPI. The graph presents quantitative data of CTR-ZO-1 interactions in three separate but identical experiments (mean±SEM; n=6, p<0.001, paired t-test). […] Next, this phenomenon was examined in LNCaP cells, which are androgen-responsive and endogenously express CTR but not CT (Karpova et al., 2006). […] Finally, non-metastatic and metastatic PC specimens were examined in a similar experiment.\n(§3) Since CTR directly interacts with ZO-1 through PDZ domain, whether CT-induced endocytosis of ZO-1 is caused by CTR-mediated events prior to or subsequent to CTR-ZO-1 interaction was tested. To determine the time course of CTR-ZO-1 interaction, in situ PLA assay was used (FIG. 15D). […] Representative micrographs are shown of CTR-ZO-1 interactions in PC-3CTRwt cells at various time periods (0-300 seconds) after CT stimulus. Each highlighted dot represents an interaction between activated CTR and ZO-1, detected by in situ PLA™ using the Duolink® kit. Nuclei were stained with DAPI. The line graph presents the mean±SEM of dots at each time point (n=6). […] Considering that ZO-1 endocytosis was observed after 1 minute of CT stimulus, it is conceivable that CTR-mediated events subsequent to CTR-ZO-1 interaction may be associated with TJ protein endocytosis."}, "CTR-ZO-1 interaction [3]": {"test_system": "CTR-ZO-1 interaction", "assay": "In situ proximity ligation assay (PLA)", "conditions": "LNCaP cells, CT 50 nM, 30 seconds", "procedure": "as §1, §2, §3"}},
  "data": [
    {"substance": "calcitonin [CT]", "values": [
      {"measurement": "TER", "setting": "[1]; cells expressing ZO-1-ΔPDZ3", "value": "no decrease in TER"},
      {"measurement": "TER", "setting": "[1]; cells re-expressing ZO-1-wt, ΔPDZ1 or ΔPDZ2", "value": "remarkable decline in TER"},
      {"measurement": "time of peak CTR-ZO-1 interaction after CT stimulus", "setting": "CTR-ZO-1 interaction [2]", "value": 30, "unit": "s"},
      {"measurement": "CTR-ZO-1 interactions (PLA dots)", "setting": "CTR-ZO-1 interaction [2]; 50 nM CT, 30 seconds", "value": "eighty-fold increase"},
      {"measurement": "CTR-ZO-1 interactions (PLA dots)", "setting": "CTR-ZO-1 interaction [3]", "value": "strong interaction"}
    ]}
  ]
}
